# Experimental data from patent publication US20130253048A1, “Pharmaceutical Composition for Promoting Osteogenesis Containing Axial-equatorial Aryl-oriented Furofuran-type Lignan, and Pharmaceutical Preparation, Functional Food Product, and Health Food Product Comprising Composition” (ERINA CO., INC., priority 2010, published 2013).
# Tests used:
# TRACP5b = experiment: Serum TRACP5b of OVX mice (bone metabolism marker); assay type: in vivo, mouse
# Protocol: All obtained blood from the heart under diethyl ether anesthesia at dissection was stored at 4 degree centigrade for 24 hours. Then, the blood was centrifuged at 3,000 rpm (4,000×g) for 15 minutes to separate the sera.
# According to the protocol of Mouse TRAP™ Assay (Immuno-diagnostic Systems Ltd, the United of Kingdom), TRACP5b in the obtained sera was determined.
# [1] = test system: ovariectomized mouse (type I osteoporosis model animal); experiment: Change of bone mass in type I osteoporosis model animal (ovariectomized mice, dosing 3 months, femur pQCT); assay type: in vivo; settings: for Bone density Cancellous bone, relative value / Bone density whole bone, relative value / Cortical bone Bone density, relative value / Cortical bone Bone thickness, relative value / Cortical bone adventitia diameter, relative value / Cortical bone lining membrane diameter, relative value / Polar axis bone strength, relative value (Table 3): Sham group = 100; for Polar axis strength (polar coordinates strength): SSI from pQCT; for Bone density Cancellous bone / Bone density whole bone: right femur, pQCT
# Text: Female Slc: ddy mice of 4 weeks old (Japan SLC, Inc.) was operated with ovariectomy to use as a type I osteoporosis model animal. Also, in order to delete the affection by invasion, a group which is operated without ovariectomy (Sham operation) is set (Sham group). These were the […] model animals.
# Animal bedding were changed twice a week and always to use all fresh one, CRF-1 (Oriental Yeast Co., Ltd.) is fed as feed and deionized water as drinking water were freely given. Their body weights were weighed twice a week by the end of the experiment.
# Fargesin was dissolved in 30 mL of a solution (it is referred to as “TD solution”, hereinbelow) containing 4% dimethyl sulfoxide (it is referred to as “DMSO”, hereinbelow) and 4% TWEEN 80 (both were purchased from Wako Pure Chemical Industries, Ltd.) so as that a dosage amount of fargesin becomes 20 mg/kg body wt/day, or […].
# After the surgical operation, the mice were adapted to the circumstances for 5 days, and then they were divided to the Sham group, the negative control, the positive control group, and the test substance administration group (6 mice per group). The ovariectomized mice were used for the negative control group, the positive control group, and the test substance administration group.
# Fargesin solution was daily administrated to the ovariectomized mice in the test group at the dosage of 20 mg/kg body wt/day (it is referred to as “F20 group”, hereinbelow) or 100 mg/kg body wt/day (it is referred to as “F100 group”, hereinbelow) for 3 month p.o.
# In order to study effects of fargesin on the bone, the femur, the largest long bone, was used.
# The mice in each group were killed by the cervical dislocation under diethyl ether anesthesia. Their right femurs were excised with muscles, and the muscles were removed from the femur after the excision. Lengths of the excised bones from the mice in the groups were measured, and they were dipped in 70% ethanol to be fixed.
# In FIG. 3, the bone was shown schematically. The long bone (tubular bone) was composed of two thick and rounded ends (epiphysis), and thin and long part between them (a shaft). The bone extends to longitudinal direction, depending on the growth of a plate-shape epiphyseal cartilage (a growth plate) between the epiphysis and the shaft. The region of 1 mm proximal side from the A position for a measurement was set to that from 1 mm proximal region (epiphysis) from the distal growth plate as decided as the measurement region.
# The bone density was measured by using the peripheral quantitative computed tomography (pQCT, XCT Research SA+, Stratec Medizintechnik GmbH, Merk Ltd) (FIG. 3B). The measurement was performed under the conditions: a diameter of 90 mm, a voxel size of 0.12 mm, a CT speed of 10 mm/sec, and a block number of 1. Bone mineral content (mg/mm), bone density (mg/cm^3), and cross section of the bone (mm^2) of the entire of tomographic images (whole bone area) were calculated.
# Next, the area of the cancellous bone was extracted (peel mode 20), and then the bone mineral amount (mg/mm), the section of the bone (mm^2), and the bone density (mg/cm^3) were calculated. Further to the cortical bone, the bone mineral amount (mg/mm), the bone density (mg/cm^3), the section of the bone (mm^2), a bone thickness (mm), the periosteum perimeter of the cortical bone (mm), and the endosteum perimeter of the cortical bone (mm) were calculated.
# Based on the bone diameter and the bone density measured by the pQCT, SSI was calculated. SSI is composed of Polar SSI (torsion strength in polar coordination), X-axis SSI (strength in X axis, three-point bending strength), and Y-axis SSI (Y axis strength, three-point lateral bending strength), and it is expressed by the following general equation.
# Wherein, Z is the coefficient of the cross section (mm^3), CBD is the bone density of the cortical bone (mg/cm^3), and ND is the physiological bone density (1200 mg/cm^3). The coefficient Z is shown as the following equation.
# [2] = F20 group: 20 mg/kg body wt/day p.o.
# [3] = F100 group: 100 mg/kg body wt/day p.o.
# [4] = OVX mice, F20 group: 20 mg/kg body wt/day p.o., 3 months
# [5] = OVX mice, F100 group: 100 mg/kg body wt/day p.o., 3 months
compound,measurement,setting,value
"COc1ccc([C@@H]2OC[C@H]3[C@@H]2CO[C@@H]3c2ccc3c(c2)OCO3)cc1OC [fargesin, Fargesin]",level of TRACP5b in the sera,TRACP5b; 40 mg administration group p.o.,significantly decreased
same,level of TRACP5b in the sera,"TRACP5b; 2, 20, 40 mg/kg/day p.o.",dose-dependently decreased
same,"Bone density Cancellous bone, relative value",[1]; [2],123.0
same,"Bone density whole bone, relative value",[1]; [2],100.8
same,"Cortical bone Bone density, relative value",[1]; [2],(97.4)
same,"Cortical bone Bone thickness, relative value",[1]; [2],(91.1)
same,"Cortical bone adventitia diameter, relative value",[1]; [2],(105.3)
same,"Cortical bone lining membrane diameter, relative value",[1]; [2],(110.8)
same,"Polar axis bone strength, relative value (Table 3)",[1]; [2],104.2
same,"Bone density Cancellous bone, relative value",[1]; [3],131.3
same,"Bone density whole bone, relative value",[1]; [3],102.2
same,"Cortical bone Bone density, relative value",[1]; [3],(95.6)
same,"Cortical bone Bone thickness, relative value",[1]; [3],(102.5)
same,"Cortical bone adventitia diameter, relative value",[1]; [3],(104.2)
same,"Cortical bone lining membrane diameter, relative value",[1]; [3],(104.9)
same,"Polar axis bone strength, relative value (Table 3)",[1]; [3],71.6
same,Cortical bone Bone density,[1]; [4],859.483 ± 2.479 mg/mL
same,Cortical bone Bone thickness,[1]; [4],0.329 ± 0.026 mm
same,Cortical bone adventitia diameter,[1]; [4],8.4160 ± 0.116 mm
same,Cortical bone lining membrane diameter,[1]; [4],6.347 ± 0.160 mm
same,Polar axis bone strength (Table 3),[1]; [4],2.005 ± 0.154 mm^3
same,"bone mineral mass, cancellous bone",[1]; [4],0.855±0.067 mg/mm
same,"bone mineral mass, cortical bone",[1]; [4],2.087±0.160 mg/mm
same,"bone mineral mass, whole bone",[1]; [4],3.638±0.164 mg/mm
same,"cross section area of the bone, cortical bone",[1]; [4],2.427±0.185 mm^2
same,"cross section area of the bone, whole bone",[1]; [4],5.643±0.152 mm^2
same,Polar axis strength (polar coordinates strength),[1]; [4],1.615±0.090 mm^3
same,Bone density Cancellous bone,[1]; [4],431.283 ± 30.506 mg/mL
same,Bone density whole bone,[1]; [4],644.367 ± 20.387 mg/mL
same,Cortical bone Bone density,[1]; [5],843.55 ± 8.714 mg/mL
same,Cortical bone Bone thickness,[1]; [5],0.370 ± 0.051 mm
same,Cortical bone adventitia diameter,[1]; [5],8.3300 ± 0.278 mm
same,Cortical bone lining membrane diameter,[1]; [5],6.010 ± 0.313 mm
same,Polar axis bone strength (Table 3),[1]; [5],1.265 ± 0.147 mm^3
same,"bone cross section, whole bone",[1]; [5],5.550±0.351 mm^2
same,"bone mineral mass, cancellous bone",[1]; [5],0.920±0.102 mg/mm
same,"bone mineral mass, cortical bone",[1]; [5],2.240±0.320 mg/mm
same,"bone mineral mass, whole bone",[1]; [5],3.660±0.326 mg/mm
same,"cross section area of the bone, cortical bone",[1]; [5],2.640±0.361 mm^2
same,Polar axis strength (polar coordinates strength),[1]; [5],1.666±0.087 mm^3
same,Bone density Cancellous bone,[1]; [5],460.500 ± 36.222 mg/mL
same,Bone density whole bone,[1]; [5],653.300 ± 29.083 mg/mL
